According to US5700819A, “2-substituted benzothiazole derivatives and prophylactic and therapeutic agents for the treatment of diabetic complications” (Grelan Pharmaceutical Co., Ltd., priority 1994, dated 1997):

Assays:
[1] = test system: sorbitol accumulation in tissues (sciatic nerve, lens) of experimental diabetic rats; assay: Inhibitory Effect on Sorbitol Accumulation in the Tissues of Experimental Diabetic Rats (Therapeutic Effect); type: in vivo, Sprague-Dawley rats; settings: 5 days, from 7 days after streptozotocin, control = 100%, ** P < 0.01 (Tukey); for Sorbitol Accumulation, Nerve: sciatic nerve
Experimental: 4) Inhibitory Effect on Sorbitol Accumulation in the Tissues of Experimental Diabetic Rats (Therapeutic Effect)
Sprague-Dawley rats (male, 6-week-old, 5 to 6 rats/group), fasted for 18 hours, were made diabetic by injecting streptozotocin (Sigma) at a dose of 60 mg/kg body weight into the tail vein thereof. From 7 days after the streptozotocin injection, a sample compound suspended in 0.5% carboxymethyl cellulose was administered orally to the rats at a dose between 1 and 10 mg/kg once daily for 5 consecutive days. The rats were fed with diet and water ad libitum during the experiment. Three hours after the final administration, the sorbitol contents in the tissues (sciatic nerve, lens) was assayed enzymatically using SDH (sorbitol dehydrogenase) and NAD (β-nicotinamide adenine dinucleotide) according to the method by H. U. Bergmeyer et al. (Methods of Enzymatic Analysis, 3, p. 1323-1330 (1974)). The sorbitol contents in control groups to which 0.5% carboxymethyl cellulose was administered instead of sample compounds is expressed as 100%.

[2] = molecular target: T1, Aldose reductase (Sus scrofa, UniProt P80276); assay: Aldose Reductase Inhibition; type: biochemical; settings: porcine lens aldose reductase; DL-glyceraldehyde 3 mM, NADPH 0.1 mM, pH 6.2, 37° C.
T1 construct: Aldose reductase samples were prepared from porcine lens; from tissue; host or cells: porcine lens
Experimental: Aldose reductase samples were prepared from porcine lens according the method by S. Hayman et al., (Journal of Biological Chemistry, 240, p. 877-882 (1965)). In brief, lens of porcine eyes were frozen (-80° C.) until employed. These lenses were homogenized with distilled water and then centrifuged at 10,000×g for 15 minutes. The supernatant was fractionated with 0 to 40% ammonium sulfate and centrifuged at 10,000×g for 10 minutes. The resultant supernatant was dialyzed overnight against 0.05M sodium chloride. The dialyzed solution was used as an aldose reductase sample. (Assay of Enzymatic Activity) Aldose reductase activity was assayed according to the aforementioned method by S. Hayman et al. In brief, to 200 μl of 40 mM phosphate buffer (pH 6.2) containing lithium sulfate, 0.4M (final concentration); NADPH (reduced nicotinamide adenine dinucleotide phosphate), 0.1 mM (final concentration); and DL-glyceraldehyde as a substrate, 3 mM (final concentration) was added 25 μl of the aldose reductase solution obtained by the aforementioned method and 25 μl of 1% DMSO solutions containing a sample inhibitor compound with different concentrations. The mixtures were incubated at 37° C. for 2 minutes for reaction and changes in the absorbance at 340 nm were read using an auto-analyzer (Hitachi Corporation, Model 7070, Japan). The change in the absorbance of a mixed solution including 1% DMSO instead of sample compounds was expresses as 100%. […] IC50 (M) means the concentration of the compounds, required for 50% inhibition of aldose reductase activity.

[3] = test system: sorbitol accumulation in tissues (sciatic nerve, lens) of experimental diabetic rats; assay: Inhibitory Effect on Sorbitol Accumulation in the Tissues of Experimental Diabetic Rats (Prophylactic effect); type: in vivo, Sprague-Dawley rats; settings: control = 100%, ** P < 0.01 (Tukey); for Sorbitol Accumulation, Nerve: sciatic nerve
Experimental: 2) Inhibitory Effect on Sorbitol Accumulation in the Tissues of Experimental Diabetic Rats (Prophylactic effect)
Sprague-Dawley rats (male, 6-week-old, 5-6 rats/group), fasted for 18 hours, were made diabetic by a single intravenous (tail vein) injection of 60 mg/kg body weight of streptozotocin (Sigma). Four, eight and twenty four hours after the injection of streptozotocin, respectively, a sample compound suspended in 0.5% carboxymethyl cellulose was administered orally to the rats at a dose of 10 or 30 mg/kg. The rats were fed with diet and water ad libitum during the experiment. Three hours after the final administration, the sorbitol contents in the tissues (sciatic nerve, lens) was assayed enzymatically using SDH (sorbitol dehydrogenase) and NAD (β-nicotinamide adenine dinucleotide) according to the method by H. U. Bergmeyer et al. (Methods of Enzymatic Analysis, 3, p. 1323-1330 (1974)). The sorbitol contents in control groups to which 0.5% carboxymethyl cellulose was administered instead of sample compounds is expressed as 100%.

[4] = test system: Normal ICR mice; assay: Safety Study; type: in vivo; settings: 1000 mg/kg oral, single dose; observed 7 days; male ICR mice, 5/group
Experimental: The safety of the compounds of the present invention was confirmed according to the following experimental procedure.
Normal ICR mice (male, 7-week-old, 5 mice/group), fasted for 18 hours, received orally the compound each of Examples 1-ii), 5-ii), 19-ii), 21, 22-ii) and 23-ii) suspended in 0.5% carboxymethyl cellulose at a dose of 1000 mg/kg. Control groups received only 0.5% carboxymethyl cellulose orally. […] The mice were fed with diet and water ad libitum during the experiment.

[5] = 10 mg/kg oral, 4, 8 and 24 h after streptozotocin
[6] = 30 mg/kg oral, 4, 8 and 24 h after streptozotocin

O=C(O)Cc1cccc(Cc2nc3c(F)c(F)cc(F)c3s2)c1Cl [Example 25-ii), 3-[(4,5,7-trifluorobenzothiazol-2-yl)methyl]-2-chlorophenylacetic acid]
Sorbitol Accumulation, Lens ([1]; 1 mg/kg oral once daily): 47%
Sorbitol Accumulation, Nerve ([1]; 1 mg/kg oral once daily): 0%

O=C(O)Cc1cc(Br)cc(Cc2nc3c(F)c(F)cc(F)c3s2)c1 [Example 28-ii), 3-[(4,5,7-trifluorobenzothiazol-2-yl)methyl]-5-bromophenylacetic acid]
IC50 [2]: 9.4 nM

O=C(O)Cc1cccc(Cc2nc3c(F)c(F)ccc3s2)c1Cl [Example 24-ii), 3-[(4,5-difluorobenzothiazol-2-yl)methyl]-2-chlorophenylacetic acid]
Sorbitol Accumulation, Lens ([1]; 10 mg/kg oral once daily): 26%
Sorbitol Accumulation, Nerve ([1]; 10 mg/kg oral once daily): 11%

Cc1cc(CC(=O)O)cc(Cc2nc3c(F)c(F)cc(F)c3s2)c1 [Example 22-ii), 3-[(4,5,7-trifluorobenzothiazol-2-yl)methyl]-5-methylphenylacetic acid]
IC50 [2]: 9.6 nM
Sorbitol Accumulation, Lens ([1]; 3 mg/kg oral once daily): 25%
Sorbitol Accumulation, Nerve ([1]; 3 mg/kg oral once daily): 2%
Sorbitol Accumulation, Lens [3, 5]: 41%
Sorbitol Accumulation, Nerve [3, 5]: 0%

O=C(O)CCCCSc1nc2c(F)c(F)cc(F)c2s1 [Example 15-ii), 5-(4,5,7-trifluorobenzothiazol-2-ylthio)pentanoic acid]
IC50 [2]: 14 nM

O=C(O)CN(C(=S)CCc1nc2c(F)c(F)cc(F)c2s1)c1ccccc1 [Example 32-ii), N-[3-(4,5,7-trifluorobenzothiazol-2-yl)-1-thioxopropionyl]-N-phenylglycine]
IC50 [2]: 8.4 nM

CN(CC(=O)O)C(=O)CCc1nc2c(F)c(F)cc(F)c2s1 [Example 3-iii), N-[3-(4,5,7-trifluorobenzothiazol-2-yl)propionyl]-N-methylglycine]
IC50 [2]: 13 nM

O=C(O)Cc1cccc(Cc2nc3c(Cl)c(Cl)ccc3s2)c1 [Example 19-ii), 3-[(4,5-dichlorobenzothiazol-2-yl)methyl]phenylacetic acid]
IC50 [2]: 12 nM

O=C(O)CN(Cc1ccccc1)C(=S)CCc1nc2c(F)c(F)cc(F)c2s1 [Example 8-ii), N-benzyl-N-[3-(4,5,7-trifluorobenzothiazol-2-yl)-1-thioxopropyl]glycine]
IC50 [2]: 23 nM

O=C(O)Cc1cc(Cc2nc3c(F)c(F)cc(F)c3s2)cc(C(=O)O)c1 [Example 30-ii), 3-[(4,5,7-trifluorobenzothiazol-2-yl)methyl]-5-carboxymethylbenzoic acid]
IC50 [2]: 8.7 nM

O=C(O)Cc1ccccc1Cc1nc2c(F)c(F)cc(F)c2s1 [Example 20-ii), 2-[(4,5,7-trifluorobenzothiazol-2-yl)methyl]phenylacetic acid]
IC50 [2]: 19 nM
Sorbitol Accumulation, Lens [3, 5]: 63%
Sorbitol Accumulation, Nerve [3, 5]: 15%

CN(C)c1cc(CC(=O)O)cc(Cc2nc3c(F)c(F)cc(F)c3s2)c1 [Example 31-ii), 3-[(4,5,7-trifluorobenzothiazol-2-yl)methyl]-5-dimethylaminophenylacetic acid]
IC50 [2]: 6.7 nM
Sorbitol Accumulation, Lens ([1]; 3 mg/kg oral once daily): 77%
Sorbitol Accumulation, Nerve ([1]; 3 mg/kg oral once daily): 1%

Cc1cc(CC(=O)O)cc(Cc2nc3c(F)c(F)ccc3s2)c1 [23-ii), 3-[(4,5-difluorobenzothiazol-2-yl)methyl]-5-methylphenylacetic acid]
mortality [4]: No animal died

O=C(O)Cc1cccc(Cc2nc3c(F)c(F)cc(F)c3s2)c1 [Example 1-ii), 3-[(4,5,7-trifluorobenzothiazol-2-yl)methyl]phenylacetic acid]
IC50 [2]: 6.6 nM
Sorbitol Accumulation, Lens ([1]; 10 mg/kg oral once daily): 68%
Sorbitol Accumulation, Nerve ([1]; 10 mg/kg oral once daily): 2%
Sorbitol Accumulation, Lens [3, 6]: 4%
Sorbitol Accumulation, Nerve [3, 6]: 0%

O=C(O)CN(C(=O)CCc1nc2c(F)c(F)cc(F)c2s1)c1ccccc1 [Example 4-ii), N-[3-(4,5,7-trifluorobenzothiazol-2-yl)propionyl]-N-phenylglycine]
IC50 [2]: 8.3 nM
Sorbitol Accumulation, Lens [3, 6]: 20%
Sorbitol Accumulation, Nerve [3, 6]: 46%

O=C(O)CN(Cc1ccccc1)C(=O)CCc1nc2c(F)c(F)cc(F)c2s1 [Example 5-ii), N-benzyl-N-[3-(4,5,7-trifluorobenzothiazol-2-yl)propionyl]glycine]
IC50 [2]: 9.7 nM

O=C(O)Cc1cccc(Cc2nc3c(F)c(F)ccc3s2)c1 [Example 21, 3-[(4,5-difluorobenzothiazol-2-yl)methyl]phenylacetic acid]
IC50 [2]: 6.7 nM
Sorbitol Accumulation, Lens [3, 5]: 40%
Sorbitol Accumulation, Nerve [3, 5]: 0%
